Assay results reported in PubChem BioAssay AID2060898 (Molecular Pharmacology Branch, DTP, NCI, 2025).

Tested on: 616215-338-R-J1-PDC complex spheroid viability
Test: Anticancer human tumor 616215-338-R-J1-PDC patient-derived colon adenocarcinoma cell line growth inhibition [RAS]
Details: for IC50: curve of first compound; for viability, T/C: stronger effect = lower value
Outline: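 Tumour cells grown as complex spheroids with HUVEC endothelial cells and mesenchymal stem cells, treated with RAS pathway inhibitor combinations. Each agent spans half-log steps from near clinical Cmax, or 10 microM where Cmax is unknown.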

[1] = second compound 0.000949 µM, first compound 0.0316 µM
[2] = second compound 0.000949 µM, first compound 0.1 µM
[3] = second compound 0.000949 µM, first compound 0.316 µM
[4] = second compound 0.000949 µM, first compound 1 µM
[5] = second compound 0.000949 µM, first compound 3.16 µM
[6] = second compound 0.000949 µM, first compound 10 µM
[7] = second compound 0.003 µM, first compound 0.0316 µM
[8] = second compound 0.003 µM, first compound 0.1 µM
[9] = second compound 0.003 µM, first compound 0.316 µM
[10] = second compound 0.003 µM, first compound 1 µM
[11] = second compound 0.003 µM, first compound 3.16 µM
[12] = second compound 0.003 µM, first compound 10 µM
[13] = second compound 0.00949 µM, first compound 0.0316 µM
[14] = second compound 0.00949 µM, first compound 0.1 µM
[15] = second compound 0.00949 µM, first compound 0.316 µM
[16] = second compound 0.00949 µM, first compound 1 µM
[17] = second compound 0.00949 µM, first compound 3.16 µM
[18] = second compound 0.00949 µM, first compound 10 µM
[19] = second compound 0.03 µM, first compound 0.0316 µM
[20] = second compound 0.03 µM, first compound 0.1 µM
[21] = second compound 0.03 µM, first compound 0.316 µM
[22] = second compound 0.03 µM, first compound 1 µM
[23] = second compound 0.03 µM, first compound 3.16 µM
[24] = second compound 0.03 µM, first compound 10 µM
[25] = second compound 0.0949 µM, first compound 0.0316 µM
[26] = second compound 0.0949 µM, first compound 0.1 µM
[27] = second compound 0.0949 µM, first compound 0.316 µM
[28] = second compound 0.0949 µM, first compound 1 µM
[29] = second compound 0.0949 µM, first compound 3.16 µM
[30] = second compound 0.0949 µM, first compound 10 µM
[31] = second compound 0.3 µM, first compound 0.0316 µM
[32] = second compound 0.3 µM, first compound 0.1 µM
[33] = second compound 0.3 µM, first compound 0.316 µM
[34] = second compound 0.3 µM, first compound 1 µM
[35] = second compound 0.3 µM, first compound 3.16 µM
[36] = second compound 0.3 µM, first compound 10 µM
[37] = second compound 0.000949 µM, first compound 0.00316 µM
[38] = second compound 0.000949 µM, first compound 0.01 µM
[39] = second compound 0.003 µM, first compound 0.00316 µM
[40] = second compound 0.003 µM, first compound 0.01 µM
[41] = second compound 0.00949 µM, first compound 0.00316 µM
[42] = second compound 0.00949 µM, first compound 0.01 µM
[43] = second compound 0.03 µM, first compound 0.00316 µM
[44] = second compound 0.03 µM, first compound 0.01 µM
[45] = second compound 0.0949 µM, first compound 0.00316 µM
[46] = second compound 0.0949 µM, first compound 0.01 µM
[47] = second compound 0.3 µM, first compound 0.00316 µM
[48] = second compound 0.3 µM, first compound 0.01 µM
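Note: spheroids exposed to agents for seven days before viability readout.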
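Throughout, for viability, T/C: 100% = DMSO vehicle control viability.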

`CC(C)NCC(C(=O)N1CCN(c2ncnc3c2C(C)CC3O)CC1)c1ccc(Cl)cc1` (stereo not drawn) + CCn1c(-c2cccnc2C(C)OC)c2c3cc(ccc31)N1CCOC(CC(NC(=O)C(C(C)C)N(C)C(=O)C3(F)CCN(C(=O)C#CC(C)(C)N(C)C)CC3)C(=O)N3CCCC(N3)C(=O)OCC(C)(C)C2)C1 showed an IC50 (second compound 0.000949 µM) of 8.75 µM, an IC50 (second compound 0.003 µM) greater than 10 µM and an IC50 (second compound 0.00949 µM) greater than 10 µM. For the same compound, the IC50 (second compound 0.03 µM) was 8.38 µM, the IC50 (second compound 0.0949 µM) was 6.15 µM and the IC50 (second compound 0.3 µM) was 3 µM. It also gave a viability, T/C [1] of 106%, a viability, T/C [2] of 106% and a viability, T/C [3] of 102%. The viability, T/C [4] was 113%, the viability, T/C [5] was 90.7% and the viability, T/C [6] was 44.7%. For the same compound, the viability, T/C [7] was 98.1%, the viability, T/C [8] was 95.9% and the viability, T/C [9] was 94%. It also gave a viability, T/C [10] of 98.4%, a viability, T/C [11] of 97.4% and a viability, T/C [12] of 50.9%. The viability, T/C [13] was 112%, the viability, T/C [14] was 101% and the viability, T/C [15] was 93.5%. The viability, T/C [16] was 98.5%, the viability, T/C [17] was 85.5% and the viability, T/C [18] was 51.1%. It also gave a viability, T/C [19] of 99.7%, a viability, T/C [20] of 98.8% and a viability, T/C [21] of 105%. It also gave a viability, T/C [22] of 111%, a viability, T/C [23] of 96.2% and a viability, T/C [24] of 41.4%. The viability, T/C [25] was 118%, the viability, T/C [26] was 108% and the viability, T/C [27] was 111%. The viability, T/C [28] was 97.2%, the viability, T/C [29] was 73.9% and the viability, T/C [30] was 32.4%. The viability, T/C [31] was 116%, the viability, T/C [32] was 116% and the viability, T/C [33] was 108%. It also gave a viability, T/C [34] of 85.6%, a viability, T/C [35] of 48.1% and a viability, T/C [36] of 28.6%.

Compound `CC(C)n1nc(-c2ccc3oc(N)nc3c2)c2c(N)ncnc21` + CCn1c(-c2cccnc2C(C)OC)c2c3cc(ccc31)N1CCOC(CC(NC(=O)C(C(C)C)N(C)C(=O)C3(F)CCN(C(=O)C#CC(C)(C)N(C)C)CC3)C(=O)N3CCCC(N3)C(=O)OCC(C)(C)C2)C1 has an IC50 (second compound 0.000949 µM) greater than 0.1 µM, an IC50 (second compound 0.003 µM) greater than 0.1 µM and an IC50 (second compound 0.00949 µM) greater than 0.1 µM. It also gave an IC50 (second compound 0.03 µM) greater than 0.1 µM, an IC50 (second compound 0.0949 µM) greater than 0.1 µM and an IC50 (second compound 0.3 µM) of 0.0662 µM. The viability, T/C (second compound 0.000949 µM, first compound 0.000316 µM) was 95.6%, the viability, T/C (second compound 0.000949 µM, first compound 0.001 µM) was 97.1% and the viability, T/C [37] was 108%. The viability, T/C [38] was 96.9%, the viability, T/C [1] was 112% and the viability, T/C [2] was 72.2%. The viability, T/C (second compound 0.003 µM, first compound 0.000316 µM) was 102%, the viability, T/C (second compound 0.003 µM, first compound 0.001 µM) was 98.9% and the viability, T/C [39] was 97.8%. For the same compound, the viability, T/C [40] was 105%, the viability, T/C [7] was 116% and the viability, T/C [8] was 74.1%. It also gave a viability, T/C (second compound 0.00949 µM, first compound 0.000316 µM) of 100%, a viability, T/C (second compound 0.00949 µM, first compound 0.001 µM) of 90.7% and a viability, T/C [41] of 101%. It also gave a viability, T/C [42] of 111%, a viability, T/C [13] of 111% and a viability, T/C [14] of 66.6%. It also gave a viability, T/C (second compound 0.03 µM, first compound 0.000316 µM) of 95.5%, a viability, T/C (second compound 0.03 µM, first compound 0.001 µM) of 96.1% and a viability, T/C [43] of 115%. The viability, T/C [44] was 106%, the viability, T/C [19] was 102% and the viability, T/C [20] was 64.1%. For the same compound, the viability, T/C (second compound 0.0949 µM, first compound 0.000316 µM) was 109%, the viability, T/C (second compound 0.0949 µM, first compound 0.001 µM) was 109% and the viability, T/C [45] was 113%. It also gave a viability, T/C [46] of 110%, a viability, T/C [25] of 108% and a viability, T/C [26] of 55.8%. For the same compound, the viability, T/C (second compound 0.3 µM, first compound 0.000316 µM) was 106%, the viability, T/C (second compound 0.3 µM, first compound 0.001 µM) was 106% and the viability, T/C [47] was 103%. It also gave a viability, T/C [48] of 82.1%, a viability, T/C [31] of 71.8% and a viability, T/C [32] of 38.9%.

`CC(Nc1ccc2c(c1)OCCn1cc(N3C(=O)OCC3C(F)F)nc1-2)C(N)=O` (stereo not drawn) + CCn1c(-c2cccnc2C(C)OC)c2c3cc(ccc31)N1CCOC(CC(NC(=O)C(C(C)C)N(C)C(=O)C3(F)CCN(C(=O)C#CC(C)(C)N(C)C)CC3)C(=O)N3CCCC(N3)C(=O)OCC(C)(C)C2)C1 showed an IC50 (second compound 0.000949 µM) greater than 10 µM, an IC50 (second compound 0.003 µM) greater than 10 µM and an IC50 (second compound 0.00949 µM) greater than 10 µM. It also gave an IC50 (second compound 0.03 µM) greater than 10 µM, an IC50 (second compound 0.0949 µM) greater than 10 µM and an IC50 (second compound 0.3 µM) of 9.65 µM. It also gave a viability, T/C [1] of 106%, a viability, T/C [2] of 112% and a viability, T/C [3] of 109%. The viability, T/C [4] was 101%, the viability, T/C [5] was 93.2% and the viability, T/C [6] was 91.9%. It also gave a viability, T/C [7] of 107%, a viability, T/C [8] of 116% and a viability, T/C [9] of 103%. It also gave a viability, T/C [10] of 102%, a viability, T/C [11] of 99.7% and a viability, T/C [12] of 84.2%. For the same compound, the viability, T/C [13] was 97.5%, the viability, T/C [14] was 116% and the viability, T/C [15] was 109%. The viability, T/C [16] was 114%, the viability, T/C [17] was 91.5% and the viability, T/C [18] was 78.7%. For the same compound, the viability, T/C [19] was 95.4%, the viability, T/C [20] was 109% and the viability, T/C [21] was 98.9%. It also gave a viability, T/C [22] of 108%, a viability, T/C [23] of 96.4% and a viability, T/C [24] of 78.3%. For the same compound, the viability, T/C [25] was 123%, the viability, T/C [26] was 106% and the viability, T/C [27] was 103%. It also gave a viability, T/C [28] of 92%, a viability, T/C [29] of 106% and a viability, T/C [30] of 90%. The viability, T/C [31] was 102%, the viability, T/C [32] was 87.6% and the viability, T/C [33] was 94.5%. The viability, T/C [34] was 68.1%, the viability, T/C [35] was 103% and the viability, T/C [36] was 48.7%.

Compound `O=C(c1ccc(F)c(F)c1Nc1ccc(I)cc1F)N1CC(O)([C@@H]2CCCCN2)C1` + CCn1c(-c2cccnc2C(C)OC)c2c3cc(ccc31)N1CCOC(CC(NC(=O)C(C(C)C)N(C)C(=O)C3(F)CCN(C(=O)C#CC(C)(C)N(C)C)CC3)C(=O)N3CCCC(N3)C(=O)OCC(C)(C)C2)C1 has an IC50 (second compound 0.000949 µM) of 0.0649 µM, an IC50 (second compound 0.003 µM) of 0.0537 µM and an IC50 (second compound 0.00949 µM) of 0.0578 µM. It also gave an IC50 (second compound 0.03 µM) of 0.0531 µM, an IC50 (second compound 0.0949 µM) of 0.0475 µM and an IC50 (second compound 0.3 µM) of 0.0148 µM. For the same compound, the viability, T/C [37] was 108%, the viability, T/C [38] was 99.2% and the viability, T/C [1] was 70.6%. The viability, T/C [2] was 34.7%, the viability, T/C [3] was 21.4% and the viability, T/C [4] was 4.49%. The viability, T/C [39] was 112%, the viability, T/C [40] was 109% and the viability, T/C [7] was 63.3%. For the same compound, the viability, T/C [8] was 30.5%, the viability, T/C [9] was 18% and the viability, T/C [10] was 2.97%. The viability, T/C [41] was 105%, the viability, T/C [42] was 109% and the viability, T/C [13] was 61.5%. For the same compound, the viability, T/C [14] was 34.8%, the viability, T/C [15] was 22.2% and the viability, T/C [16] was 3.61%. The viability, T/C [43] was 125%, the viability, T/C [44] was 93.9% and the viability, T/C [19] was 61.8%. The viability, T/C [20] was 34.7%, the viability, T/C [21] was 16.9% and the viability, T/C [22] was 2.6%. The viability, T/C [45] was 101%, the viability, T/C [46] was 87.9% and the viability, T/C [25] was 59.2%. The viability, T/C [26] was 31.2%, the viability, T/C [27] was 13.3% and the viability, T/C [28] was 2.27%. For the same compound, the viability, T/C [47] was 85.8%, the viability, T/C [48] was 58.6% and the viability, T/C [31] was 32.8%. For the same compound, the viability, T/C [32] was 20.4%, the viability, T/C [33] was 5.09% and the viability, T/C [34] was 1.18%.
